According to patent publication US11779597B2, “Method of treating Parkinson's and other neurodegenerative diseases” (Vector Vitale IP LLC, priority 2019, dated 2023):
Blank lines part the entries; values can stand above or below the compound they belong to.

Experiments:
[1] = tested on: human T-lymphocytes (CD3+); conditions: cited from earlier work
normal human fibroblasts = assay: Metabolic activity of cells (MTT assay); format: cell-based; conditions: 72 hours, control = 100% of living cells
Protocol: In vitro assessment of the effects of E2+^85Rbe on metabolic activity of normal human fibroblasts (MTT assay).
Proliferative and metabolic activity of cells was determined by the colorimetric method.
The metabolic activity of the cells (i.e., the number of living cells) was assessed by MTT staining.
24 hours after the last reagent, the cells were seeded at a concentration of 1×10^4 cells/well in wells of a 96-well plate in complete DMEM nutrient medium with 10% FBS and […]. The cells were cultured in a humidified atmosphere at 5% CO2 and 37° C. for 24 hours. After 24 hours, various doses of experimental substances were added to the respective wells. The cells were incubated at 37° C. and 5% CO2 for an additional 72 hours.
Upon completion of the incubation with the preparations, the proliferative and metabolic activity of the cells in the experiment was evaluated by the colorimetric method by staining MTT cells:
10 μl of the MTT solution (5 mg/ml of the dye in phosphate-buffered saline) was added to each well of the plate; the plate was incubated in a CO2 incubator at 37° C. for 3 hours. After that, the medium was removed from the wells, and the formed tetraformazan crystals were dissolved in 100 μl of dimethylsulfoxide.
When MTT was used, the results were evaluated using a multi-well spectrophotometer at an excitation wavelength of 540 nm. The percentage of viable cells was calculated by the formula: IR=(A 540(experiment)/A540(control))×100%.

[2] = according to the published data

SMILES: [Cl-].[Cl-].[Zn+2] [zinc chloride]
- proliferation of unstimulated T-cells [1, 2]: has no effect
- costimulatory effect on T-cell proliferation ([1]; published data): costimulatory effects

SMILES: [Cl-].[Rb+] [rubidium chloride]
- proliferation of both resting and activated lymphocytes [1, 2]: inhibitory effect

- Metabolic activity of cells, % (normal human fibroblasts; 2.5 μg/ml): 128.2 ± 8.3%
- Metabolic activity of cells, % (normal human fibroblasts; 5 μg/ml): 103.4 ± 9.3%
- Metabolic activity of cells, % (normal human fibroblasts; 10 μg/ml): 104.6 ± 14.2%
- Metabolic activity of cells, % (normal human fibroblasts; 20 μg/ml): 96.8 ± 9.8%
- Metabolic activity of cells, % (normal human fibroblasts; 38 μg/ml): 98.8 ± 7.1%
- Metabolic activity of cells, % (normal human fibroblasts; 75 μg/ml): 97.7 ± 7.5%
- Metabolic activity of cells, % (normal human fibroblasts; 150 μg/ml): 99.3 ± 3.2%
SMILES: Cc1ccc(S(=O)(=O)[N-]c2ccccc2NC(=O)c2ccccc2)cc1.[Rb+] [E2+Rb reference drug]
